25 molecules from patent US20230150978A1, “QUINAZOLINONE DERIVATIVES AND USES THEREOF FOR TREATING A CANCER” (ENYO PHARMA, priority 2020, published 2023) can be followed below.

For series [1], the system named is Calreticulin. Put plainly: Calreticulin release (ER to plasma membrane translocation) screen, Nano-Glo HiBiT extracellular detection. Type of series: cell-based. The following applies: Homo sapiens, MDA-MB-231, MDA-MB-231 cells stably expressing Calreticulin-HiBiT; extracellular luminescence; read-out: CalR EC50. The procedure:
Construction of pBiT3.1-Calreticulin Plasmid Calreticulin derived from pCMV6-AC plasmid (ref. SC320287, Origene) was amplified by PCR using the following set of primers: Seq ID No 3: forward, 5′-[…]-3′; Seq ID No 4: reverse, 5′-[…]-3′. The PCR fragment was subsequently digested by EcoRI and XhoI (R3101S and R0146S respectively, New England Biolabs) and inserted between the EcoRI and XhoI sites in the plasmid pBiT3.1-C(ref. N237A, Promega). The resulting plasmid (pBiT3.1-Calreticulin) was grown in NEB10-beta competent E. coli (ref. C3019I, New England Biolabs) and purified using the NucleoBond Xtra Midi Kit (ref. 740410, Macherey-Nagel).
Construction of Calreticulin Reporter Cell Line
pBiT3.1-Calreticulin was transfected in MDA-MB-231 cells (ref. ATCC HTB-2) using Lipofectamine 2000 reagent (ref. 11668, Invitrogen). Transfected cells were selected for blasticidin resistance (15 μg/ml, ref. Al 113903 Gibco) in medium containing DMEM 1× (ref. 1995065, Gibco) with 1% penicillin and streptomycin, and 10% fetal bovine serum.
Screen for Calreticulin-ER to Plasma Membrane Translocating Drugs
MDA-MB-231 cells stably expressing Calreticulin-HiBiT (10^4 cells/well) were seeded into white 96-well plates (ref.3917, Corning) and allowed to recover for 24h. […] Mitoxantrone dihydrochloride (ref. M6545, Sigma-Aldrich) was used as a positive control. Extracellular translocation of Calreticulin was measured using the Nano-Glo HiBiT extracellular detection system (ref. N2422, Promega). Nano-Glo HiBiT Extracellular Reagent was prepared in advance, added to the well and incubated 10 min.
Luminescence of the extracellular Calreticulin-HiBiT was quantified using the Spark 20M spectrofluorimeter (TECAN).
(The HiBiT peptide binds its large partner to form an active luciferase.)

For series [2], the system named is HMGB1. Description: HMGB1 release screen, Nano-Glo HiBiT extracellular detection. The class given is cell-based. Conditions: Homo sapiens, MDA-MB-231, MDA-MB-231 cells stably expressing HMGB1-HiBiT; extracellular luminescence. The procedure:
Construction of pBiT3.1-HMGB1 Plasmid
HMGB1 derived from pCMV6-AC-GFP plasmid (ref. RG205918, Origene) was amplified by PCR using the following set of primers: Seq ID No 1: forward, 5′-[…]-3′; Seq ID No 2: reverse, 5′-[…]-3′. The PCR fragment was subsequently digested by EcoRI and XhoI (R3101S and R0146S respectively, New England Biolabs) and inserted between the EcoRI and XhoI sites in the plasmid pBiT3.1-C(ref. N237A, Promega). The resulting plasmid (pBiT3.1-HMGB1) was grown in NEB10-beta competent E. coli (ref. C3019I, New England Biolabs) and purified using the NucleoBond Xtra Midi Kit (ref. 740410, Macherey-Nagel).
Construction of HMGB1 Reporter Cell Line
pBiT3.1-HMGB1 was transfected in MDA-MB-231 cells (ref. ATCC HTB-2) using Lipofectamine 2000 reagent (ref. 11668, Invitrogen). Transfected cells were selected for blasticidin resistance (15 μg/ml, ref. Al 113903 Gibco) in medium containing DMEM 1× (ref. 1995065, Gibco) with 1% penicillin and streptomycin, and 10% fetal bovine serum.
Screen for HMGB1-Releasing Drugs
MDA-MB-231 cells stably expressing HMGB1-HiBiT (10^4 cells/well) were seeded into white 96-well plates (ref.3917, Corning) and allowed to recover for 24h. […] Mitoxantrone dihydrochloride (ref. M6545, Sigma-Aldrich) was used as a positive control. Extracellular translocation of HMGB1 was measured using the Nano-Glo HiBiT extracellular detection system (ref. N2422, Promega). Nano-Glo HiBiT Extracellular Reagent was prepared in advance, added to the well and incubated 10 min. Luminescence of the extracellular HMGB1-HiBiT was quantified using the Spark 20M spectrofluorimeter (TECAN)

pEC50: −log10 of the molar value.

The pEC50 is the negative decadic logarithm of the EC50, by convention in mol/L. The term melting point denotes the temperature of the solid-liquid transition. On to `COc1ccc2nc(CN3CCCCc4ccccc43)[nH]c(=O)c2c1` [Ex. 22, 6-methoxy-2-(2,3,4,5-tetrahydro-1-benzazepin-1-ylmethyl)-3H-quinazolin-4-one], for which the melting point lay in the range of 191 to 206 °C. For the same molecule, in series [1], the pEC50 was 6.47. Besides, the pEC50 in series [2] was 6.37.
`COc1ccc2nc(CN3CC(C)c4ccccc43)[nH]c(=O)c2c1` (stereo not shown) [Ex. #3, 6-methoxy-2-[(3-methylindolin-1-yl)methyl]-3H-quinazolin-4-one] yielded a melting point of 192 to 213 °C. Further, the pEC50 in series [1] is 6.72. The pEC50 in series [2] was 6.58.
On the same counts, the results for `COc1ccc2nc(CN3CC(C(C)C)c4ccccc43)[nH]c(=O)c2c1` (stereo not shown) [Ex. #6, 2-[(3-isopropylindolin-1-yl)methyl]-6-methoxy-3H-quinazolin-4-one] are 192 to 208 °C, 6.60 and 6.66.
On the same counts, the results for `COc1ccc2nc(CN3CCc4ccc(F)cc43)[nH]c(=O)c2c1` [Ex. #7, 2-[(6-fluoroindolin-1-yl)methyl]-6-methoxy-3H-quinazolin-4-one] are 229 to 235 °C, 6.49 and 6.37.
For `COc1ccc2nc(CN3CCc4cccc(F)c43)[nH]c(=O)c2c1` [Ex. #8, 2-[(7-fluoroindolin-1-yl)methyl]-6-methoxy-3H-quinazolin-4-one] the same measures were 208 to 227 °C, 5.25 and 5.08.
On to `COc1ccc2nc(CN3CC(CO)c4ccccc43)[nH]c(=O)c2c1` (stereo not shown) [Ex. #9, 2-[[3-(hydroxymethyl)indolin-1-yl]methyl]-6-methoxy-3H-quinazolin-4-one], for which the melting point fell in the range of 190 to 209 °C. Moreover, in series [1], the pEC50 is 4.89. For the same molecule, the pEC50 in series [2] is 4.93.
As for `COc1ccc2nc(CN3CCCc4cccc(F)c43)[nH]c(=O)c2c1` [Ex. #11, 2-[(8-fluoro-3,4-dihydro-2H-quinolin-1-yl)methyl]-6-methoxy-3H-quinazolin-4-one], the melting point was 222 to 236 °C. Besides, the pEC50 in series [1] was 6.99. Also, in series [2], the pEC50 is 6.96.
With `COc1ccc2nc(CN3CCCc4cccc(OC)c43)[nH]c(=O)c2c1` [Ex. #13, 6-methoxy-2-[(8-methoxy-3,4-dihydro-2H-quinolin-1-yl)methyl]-3H-quinazolin-4-one], the melting point lay in the range of 169 to 183 °C. In addition, the pEC50 in series [1] is 5.94. In series [2], the pEC50 was 6.12.
On the same counts, the results for `COc1ccc2nc(CN3CCc4c(C#N)cccc4C3)[nH]c(=O)c2c1` [Ex. #16, 2-[(6-methoxy-4-oxo-3H-quinazolin-2-yl)methyl]-3,4-dihydro-1H-isoquinoline-5-carbonitrile] are 197 to 218 °C, 6.31 and 5.58.
For `COc1ccc2nc(CN3CCc4c(cccc4OC)C3)[nH]c(=O)c2c1` [Ex. #17, 6-methoxy-2-[(5-methoxy-3,4-dihydro-1H-isoquinolin-2-yl)methyl]-3H-quinazolin-4-one] the same measures were 204 to 218 °C, 6.27 and 5.22.
On the same counts, the results for `CC1CN(Cc2nc3ccc(Cl)cc3c(=O)[nH]2)c2ccccc21` (stereo not shown) [Ex. #37, 6-chloro-2-[(3-methylindolin-1-yl)methyl]-3H-quinazolin-4-one] are 200 to 223 °C, 5.94 and 5.50.
On to `O=c1[nH]c(CN2CCc3ccccc32)nc2ccc(N3CCC(CO)C3)cc12` (stereo not shown) [Ex. #104, 6-[3-(hydroxymethyl)pyrrolidin-1-yl]-2-(indolin-1-ylmethyl)-3H-quinazolin-4-one], for which the pEC50 is 5.67 in series [1] and 5.46 in series [2].
For `O=c1[nH]c(CN2CCc3ccccc32)nc2ccc(N3CCC(O)C3)cc12` (stereo not shown) [Ex. #105, 6-(3-hydroxypyrrolidin-1-yl)-2-(indolin-1-ylmethyl)-3H-quinazolin-4-one] the same measures were 5.04 and 4.93.
Turning to `O=c1[nH]c(CN2CCc3ccccc32)nc2ccc(N3CCCCC3)cc12` [Ex. #106, 2-(indolin-1-ylmethyl)-6-(1-piperidyl)-3H-quinazolin-4-one], the pEC50 in series [1] is 5.07; in series [2], 4.95.
On to `CC(c1nc2ccc(Cl)cc2c(=O)[nH]1)N1CCc2ccccc21` (stereo not shown) [Ex. #120, 6-chloro-2-(1-indolin-1-ylethyl)-3H-quinazolin-4-one], for which the figures for the pEC50 in series [1] and in series [2] were 5.34 and 5.10, respectively.
On to `COc1ccc2nc(CN3Cc4ccccc4C(O)C3)[nH]c(=O)c2c1` (stereo not shown) [Ex. #123, 2-[(4-hydroxy-3,4-dihydro-1H-isoquinolin-2-yl)methyl]-6-methoxy-3H-quinazolin-4-one], for which the pEC50 in series [1] was 5.44; in series [2], 4.88.
As to `COc1ccc2nc(CN3CCc4c(F)cccc4C3)[nH]c(=O)c2c1` [Ex. #124, 2-[(5-fluoro-3,4-dihydro-1H-isoquinolin-2-yl)methyl]-6-methoxy-3H-quinazolin-4-one], the pEC50 in series [1] is 5.67; in series [2], 4.87.
In turn, `COc1ccc2nc(CN3CCc4c(F)cccc43)[nH]c(=O)c2c1` [Ex. #126, 2-[(4-fluoroindolin-1-yl)methyl]-6-methoxy-3H-quinazolin-4-one] had a melting point of 222 to 232 °C. In addition, the pEC50 in series [1] was 5.09.
`Cc1ccc2c(c1)N(Cc1nc3ccc(Cl)cc3c(=O)[nH]1)CCC2` [Ex. #127, 6-chloro-2-[(7-methyl-3,4-dihydro-2H-quinolin-1-yl)methyl]-3H-quinazolin-4-one]: the negative logarithm of the EC50 (pEC50) in series [1] is 5.16; in series [2] it was 4.87.
For `CN1CCN(Cc2nc3ccc(Cl)cc3c(=O)[nH]2)c2ccccc21` [Ex. #128, 6-chloro-2-[(4-methyl-2,3-dihydroquinoxalin-1-yl)methyl]-3H-quinazolin-4-one] the same measures were 4.98 and 4.88.
On the same counts, the results for `COc1ccc2nc(CN3CC(CCO)c4ccccc43)[nH]c(=O)c2c1` (stereo not shown) [Ex. #129, 2-[[3-(2-hydroxyethyl)indolin-1-yl]methyl]-6-methoxy-3H-quinazolin-4-one] are 4.97 and 4.88.
In the case of `COc1ccc2nc(CN3CC(CCN)c4ccccc43)[nH]c(=O)c2c1` (stereo not shown) [Ex. #131, 2-[1-[(6-methoxy-4-oxo-3H-quinazolin-2-yl)methyl]indolin-3-yl]ethylammonium chloride], the pEC50 in series [1] was 4.92; in series [2], 4.84.
For `COC1CCN(c2ccc3nc(CN4CCc5ccccc54)[nH]c(=O)c3c2)CC1` [Ex. #132, 2-(indolin-1-ylmethyl)-6-(4-methoxy-1-piperidyl)-3H-quinazolin-4-one] the same measures were 4.98 and 4.84.
On the same counts, the results for `O=c1[nH]c(CN2CCc3ccccc32)nc2cc(F)ccc12` [Ex. #138, 7-fluoro-2-(indolin-1-ylmethyl)-3H-quinazolin-4-one] are 4.92 and 4.84.
On the same counts, the results for `COc1ccc2c(c1)CCN2Cc1nc2ccc(Cl)cc2c(=O)[nH]1` [Ex. #144, 6-chloro-2-((5-methoxyindolin-1-yl)methyl)quinazolin-4(3H)-one] are 5.01 and 4.84.
